Experiments:
Format in all cases: functional
M14 [1] = assay: Antiproliferative activity against human M14 cells assessed as cell growth at 10^-4 M after 48 hrs by sulforhodamine B assay; conditions: M14, 48 h, read-out: Activity
Malme-3M [2] = assay: Antiproliferative activity against human MALME-3M cells assessed as cell growth at 10^-5 M after 48 hrs by sulforhodamine B assay; conditions: read-out: Activity
[3] = Antiproliferative activity against human BT549 cells assessed as cell growth at 10^-5 M after 48 hrs by sulforhodamine B assay; conditions: BT-549, 48 h, read-out: Activity
[4] = Antiproliferative activity against human HCT116 cells assessed as cell growth at 10^-5 M after 48 hrs by sulforhodamine B assay; conditions: HCT-116, 48 h, read-out: Activity
HT-29 = assay: Antiproliferative activity against human HT-29 cells assessed as cell growth at 10^-5 M after 48 hrs by sulforhodamine B assay; conditions: HT-29, 48 h, read-out: Activity
MDA-MB-435 = assay: Antiproliferative activity against human MDA-MB-435 cells assessed as cell growth at 10^-5 M after 48 hrs by sulforhodamine B assay; conditions: MDA-MB-435, 48 h, read-out: Activity
[5] = Antiproliferative activity against human SF268 cells assessed as cell growth at 10^-5 M after 48 hrs by sulforhodamine B assay; conditions: SF-268, 48 h, read-out: Activity
A549 [6] = assay: Antiproliferative activity against human A549/ATCC cells assessed as cell growth at 10^-5 M after 48 hrs by sulforhodamine B assay; conditions: A549, 48 h, read-out: Activity
NCI-H226 = assay: Antiproliferative activity against human NCI-H226 cells assessed as cell growth at 10^-5 M after 48 hrs by sulforhodamine B assay; conditions: NCI-H226, 48 h, read-out: Activity
EKVX = assay: Antiproliferative activity against human EKVX cells assessed as cell growth at 10^-5 M after 48 hrs by sulforhodamine B assay; conditions: read-out: Activity
[7] = Antiproliferative activity against human SW620 cells assessed as cell growth at 10^-7 M after 48 hrs by sulforhodamine B assay; conditions: SW-620, 48 h, read-out: Activity
CCRF-CEM = assay: Antiproliferative activity against human CCRF-CEM cells assessed as cell growth at 10^-6 M after 48 hrs by sulforhodamine B assay; conditions: read-out: Activity
[8] = Antiproliferative activity against human MOLT4 cells assessed as cell growth at 10^-5 M after 48 hrs by sulforhodamine B assay; conditions: MOLT-4, 48 h, read-out: Activity
[9] = Antiproliferative activity against human Caki1 cells assessed as growth inhibition after 48 hrs by sulforhodamine B assay; conditions: CAKI-1, 48 h; for CC50: read-out: LC50 (the source's name)
MDA-MB-468 = assay: Antiproliferative activity against human MDA-MB-468 cells assessed as cell growth at 10^-5 M after 48 hrs by sulforhodamine B assay; conditions: MDA-MB-468, 48 h, read-out: Activity
[10] = Antiproliferative activity against human RXF393 cells assessed as cell growth at 10^-5 M after 48 hrs by sulforhodamine B assay; conditions: RXF 393, 48 h, read-out: Activity
[11] = Antiproliferative activity against human UO31 cells assessed as cell growth at 10^-8 M after 48 hrs by sulforhodamine B assay; conditions: UO-31, 48 h, read-out: Activity
ACHN = assay: Antiproliferative activity against human ACHN cells assessed as cell growth at 10^-5 M after 48 hrs by sulforhodamine B assay; conditions: read-out: Activity
U-251 = assay: Antiproliferative activity against human U251 cells assessed as cell growth at 10^-7 M after 48 hrs by sulforhodamine B assay; conditions: U-251, 48 h, read-out: Activity
[12] = Antiproliferative activity against human LOXIMVI cells assessed as cell growth at 10^-5 M after 48 hrs by sulforhodamine B assay; conditions: LOX IMVI, read-out: Activity
Malme-3M [13] = assay: Antiproliferative activity against human MALME-3M cells assessed as cell growth at 10^-4 M after 48 hrs by sulforhodamine B assay; conditions: read-out: Activity
[14] = Antiproliferative activity against human HOP62 cells assessed as cell growth at 10^-5 M after 48 hrs by sulforhodamine B assay; conditions: HOP-62, 48 h, read-out: Activity
M14 [15] = assay: Antiproliferative activity against human M14 cells assessed as cell growth at 10^-5 M after 48 hrs by sulforhodamine B assay; conditions: M14, 48 h, read-out: Activity
[16] = Antiproliferative activity against human BT549 cells assessed as cell growth at 10^-8 M after 48 hrs by sulforhodamine B assay; conditions: BT-549, 48 h, read-out: Activity
KM12 = assay: Antiproliferative activity against human KM12 cells assessed as cell growth at 10^-5 M after 48 hrs by sulforhodamine B assay; conditions: KM12, 48 h, read-out: Activity
[17] = Antiproliferative activity against human OVCAR4 cells assessed as cell growth at 10^-5 M after 48 hrs by sulforhodamine B assay; conditions: OVCAR-4, 48 h, read-out: Activity
A498 = assay: Antiproliferative activity against human A498 cells assessed as cell growth at 10^-5 M after 48 hrs by sulforhodamine B assay; conditions: A498, 48 h, read-out: Activity
MDA-MB-231 = assay: Antiproliferative activity against human MDA-MB-231 cells assessed as cell growth at 10^-5 M after 48 hrs by sulforhodamine B assay; conditions: MDA-MB-231, 48 h, read-out: Activity
[18] = Antiproliferative activity against human UACC257 cells assessed as cell growth at 10^-5 M after 48 hrs by sulforhodamine B assay; conditions: UACC-257, 48 h, read-out: Activity
[19] = Antiproliferative activity against human UO31 cells assessed as cell growth at 10^-5 M after 48 hrs by sulforhodamine B assay; conditions: UO-31, 48 h, read-out: Activity
786-0 = assay: Antiproliferative activity against human 786-0 cells assessed as cell growth at 10^-5 M after 48 hrs by sulforhodamine B assay; conditions: 786-0, 48 h, read-out: Activity
A549 [20] = assay: Antiproliferative activity against human A549/ATCC cells assessed as cell growth at […] after 48 hrs by sulforhodamine B assay; conditions: A549, 48 h, read-out: Activity
[21] = Antiproliferative activity against human SF539 cells assessed as cell growth at 10^-5 M after 48 hrs by sulforhodamine B assay; conditions: SF-539, 48 h, read-out: Activity
[22] = Antiproliferative activity against human SNB19 cells assessed as growth inhibition after 48 hrs by sulforhodamine B assay; conditions: SNB-19, 48 h
NCI-H23 = assay: Antiproliferative activity against human NCI-H23 cells assessed as cell growth at 10^-5 M after 48 hrs by sulforhodamine B assay; conditions: NCI-H23, 48 h, read-out: Activity
[23] = Antiproliferative activity against human UACC62 cells assessed as cell growth at 10^-5 M after 48 hrs by sulforhodamine B assay; conditions: UACC-62, 48 h, read-out: Activity
[24] = Antiproliferative activity against human RPMI8226 cells assessed as cell growth at 10^-5 M after 48 hrs by sulforhodamine B assay; conditions: RPMI-8226, 48 h, read-out: Activity

CNC(=O)c1cc(Oc2ccc3nc(NC(=O)c4cc(C(F)(F)F)cc(C(F)(F)F)c4)sc3c2)ccn1
growth at 100 µM (M14 [1]): -38%
growth at 10 µM (Malme-3M [2]): -17%
growth at 10 µM [3]: 5%
growth at 10 µM [4]: 7%
growth at 10 µM (HT-29): 15%
growth at 10 µM (MDA-MB-435): 7%
growth at 10 µM [5]: 11%
growth at 10 µM (A549 [6]): 13%
growth at 10 µM (NCI-H226): 19%
growth at 10 µM (EKVX): 15%
growth at 0.1 µM [7]: 102%
growth at 1 µM (CCRF-CEM): 93%
growth at 10 µM [8]: 1%
GI50 [9]: 2.75 µM
TGI [9]: 10.7 µM
CC50 [9]: 62.3 µM
growth at 10 µM (MDA-MB-468): 5%
growth at 10 µM [10]: -8%
growth at 0.01 µM [11]: 85%
growth at 10 µM (ACHN): 6%
growth at 0.1 µM (U-251): 97%
growth at 10 µM [12]: 11%
growth at 100 µM (Malme-3M [13]): -38%
growth at 10 µM [14]: 2%
growth at 10 µM (M14 [15]): 15%
growth at 0.01 µM [16]: 97%
growth at 10 µM (KM12): 2%
growth at 10 µM [17]: 10%
growth at 10 µM (A498): -35%
growth at 10 µM (MDA-MB-231): -25%
growth at 10 µM [18]: -10%
growth at 10 µM [19]: -4%
growth at 10 µM (786-0): -9%
growth at 0.1 µM (A549 [20]): 101%
growth at 10 µM [21]: 12%
GI50 [22]: 3.76 µM
LC50 (50% lethal concentration) [22]: > 100 µM
TGI [22]: 22.8 µM
growth at 10 µM (NCI-H23): 15%
growth at 10 µM [23]: 5%
growth at 10 µM [24]: 10%

CNC(=O)c1cc(Oc2ccc3nc(NC(=O)Nc4ccc(Cl)c(Cl)c4)sc3c2)ccn1
growth at 100 µM (M14 [1]): -46%
growth at 10 µM (Malme-3M [2]): -71%
growth at 10 µM [3]: 26%
growth at 10 µM [4]: -50%
growth at 10 µM (HT-29): -61%
growth at 10 µM (MDA-MB-435): -47%
growth at 10 µM [5]: -57%
growth at 10 µM (A549 [6]): -62%
growth at 10 µM (NCI-H226): -56%
growth at 10 µM (EKVX): 16%
growth at 0.1 µM [7]: 115%
growth at 1 µM (CCRF-CEM): 100%
growth at 10 µM [8]: 76%
GI50 [9]: 2.46 µM
TGI [9]: 6.3 µM
CC50 [9]: > 100 µM
growth at 10 µM (MDA-MB-468): -36%
growth at 10 µM [10]: -74%
growth at 0.01 µM [11]: 86%
growth at 10 µM (ACHN): -30%
growth at 0.1 µM (U-251): 99%
growth at 10 µM [12]: -79%
growth at 100 µM (Malme-3M [13]): -75%
growth at 10 µM [14]: -79%
growth at 10 µM (M14 [15]): -47%
growth at 0.01 µM [16]: 94%
growth at 10 µM (KM12): 5%
growth at 10 µM [17]: -68%
growth at 10 µM (A498): -25%
growth at 10 µM (MDA-MB-231): -20%
growth at 10 µM [18]: -23%
growth at 10 µM [19]: -72%
growth at 10 µM (786-0): -41%
growth at 0.1 µM (A549 [20]): 96%
growth at 10 µM [21]: -49%
GI50 [22]: 1.99 µM
LC50 (50% lethal concentration) [22]: 7.95 µM
TGI [22]: 3.98 µM
growth at 10 µM (NCI-H23): 2%
growth at 10 µM [23]: -11%
growth at 10 µM [24]: 9%

Reference: ChEMBL document CHEMBL3797052 (Eur J Med Chem, 2016)
